Source: patent publication US11510965B2, “Vesicles comprising epidermal growth factor and compositions thereof” (Centro de Ingeniería Genética y Biotecnología, priority 2012, dated 2022)

Columns and labels:
Candida albicans = test: Agar diffusion method, fungicidal activity; format: cell-based; details: 28° C., 72 hours; controls 100 μg/ml
Procedure: (§1) This activity was determined using the agar diffusion method (Manual of Clinical Microbiology. 6th ed. Washington, DC: ASM; 1995). The effectiveness of the different suspensions was assayed against Gram positive bacteria (Bacillus subtilis, Staphylococcus aureus), Gram negative bacteria (E. coli, Proteus mirabilis), and against fungi (Candida albicans, Aspergillus niger) using the technique of wells in nutrient agar plates. These microorganisms were identified and provided by the microorganism collection BCCM/LMG (Belgium). Bacteria were grown overnight at 37° C. in Tryptone Soy Broth (Oxoid), and fungi were incubated for 72 hours at 28° C. in Sabouraud Dextrose Broth (Oxoid). These suspensions were used as inocula. A final inoculum, using 100 μl of a suspension containing 10^8 colony forming units/ml of bacteria, or 10^4 spores/ml of fungus, was spread on Tryptone Soy Agar and Sabouraud Dextrose Agar (Oxoid) plates, respectively. The disk (6 mm in diameter) was impregnated with each of the different vesicle suspensions to be tested. […] Assay plates were incubated at 37° C. for 24 hours for bacteria, and 28° C. during 72 hours for fungi, depending on the incubation time required for visible growth.

Aspergillus niger = test: Agar diffusion method, fungicidal activity; format: cell-based; details: 28° C., 72 hours; controls 100 μg/ml
Procedure: as §1

[1] = cholesterol:CTAB vesicles, DELOS-SUSP; cited from earlier work

Compound	Fungicidal activity (Inhibition zone) C. albicans (Candida albicans)	Fungicidal activity (Inhibition zone) A. niger (Aspergillus niger)	gentamicin encapsulation [1]
OC(Cn1cncn1)(Cn1cncn1)c1ccc(F)cc1F [Fluconazole, fluconazole]	22 mm	21 mm	
gentamicin			< 2%
